Values quoted from earlier work as cited in US20190320896A1, “STROKE, CONCUSSION, AND COGNITIVE DYSFUNCTION DIAGNOSTIC METHOD AND DEVICE” (priority 2018, published 2019).

How the values were obtained:
[1] = human, in vivo
[2] = upon entering the circulation after bolus injection into a peripheral vein
[3] = after administration; metabolized by the kidneys

| GLOS also affecting the aqueous chamber, cases [1] | GLOS in both chambers, patients [1] | GLOS in the aqueous chamber alone, patients [1] | GLOS in the vitreous chamber alone, patients [1] | GLOS present, always involving the vitreous chamber, patients [1] [% patients] | dye molecules bound to plasma proteins [2] | time to elimination through the urine [3] [h] | Structure (SMILES) |
| --- | --- | --- | --- | --- | --- | --- | --- |
| 6 % of cases | 27 % of patients | 67 % of patients | 6 % of patients | 75 | – | – | O=C([O-])CN(CCN(CC(=O)[O-])CC(=O)[O-])CCN(CC(=O)[O-])CC(=O)[O-].[Gd+3] [gadolinium, Gadolinium-DTPA] |
| – | – | – | – | – | approximately 80% | 24 to 36 | O=C1OC2(c3ccc(O)cc3Oc3cc(O)ccc32)c2ccccc21 [sodium fluorescein] |
